Here are results for one compound from patent publication US12162836B2, “N-acyl-{4-[(4-aryl-phenyl)sulfonylmethyl]piperidine} compounds and their therapeutic use” (Modern Biosciences Limited, priority 2019, dated 2024).

As a reminder, the IC50 is the point on the concentration scale where inhibition reaches its midpoint. Broadly, the inhibition is the change of the read-out against control, counted positive when it falls.

For one data set, the target named is CYP1A2 (Homo sapiens (Human), UniProt P05177). Description: Human Cytochrome P450 Inhibition Assay (Bactosomes). The format is in vitro ADME. To be noted: recombinant Bactosomes, 10 minutes; read-out: IC50 CYP1A2. How it is done:
(§1) The ability of test compounds to inhibit five of the most relevant cytochrome P450 enzymes was measured by determination of the activity of cytochrome P450 enzymes in recombinant cytochrome preparations, called Bactosomes (Cypex Ltd, Dundee, Scotland UK DD2 1 NH), in the presence of a specific probe substrate. Bactosomes are a highly efficient and cost-effective source of recombinant CYP450s which have a higher specific activity of enzyme compared to other sources, such as liver microsomes. […] The following CYP450 isoforms were assayed: CYP1A2, CYP2C9, CYP2C19, CYP2D6 and CYP3A4. The study of CYP450 inhibition potential in Bactosomes is accepted as a valuable model permitting rapid prediction of potential drug-drug interactions in vivo (see, e.g., Weaver et al., 2003).
(§2) Bactosomes were obtained from a commercial source (Cypex, Scotland, UK). Test compounds were incubated with Bactosomes at 6 concentrations. Samples were incubated for 10 minutes, after which the reaction was stopped and the samples analysed by LC-MS/MS Multiple Reaction Monitoring (MRM) for the presence/amount of substrate probe.
(§3) CYP450 enzymes (final protein 75 pmol/mL for CYP1A2; 12.5 pmol/mL for CYP2C19; and 25 pmol/mL for CYP2C9, 2D6 and 3A4), 0.1 M phosphate buffer pH 7.4, probe and test compound (final concentration 50, 15.8, 5, 1.58, 0.5 and 0.158 μM; diluted from 10 mM stock solution to give a final DMSO concentration of 1%) were pre-incubated at 37° C. for 5 minutes. The reaction was initiated by the addition of 20 μL of 10 mM NADPH in phosphate buffer. The final incubation volume was 200 μL. The following control inhibitors were used for each CYP450 inhibition assay: CYP1A2: α-naphthoflavone; CYP2C9: sulfaphenazole; CYP2C19: tranylcypromine; CYP2D6: quinidine; CYP3A4: ketoconazole.
(§4) Each compound was incubated for 10 minutes at 37° C. The reactions were stopped by the addition of methanol (final composition 1:1, aqueous: methanol). The incubation plates were shaken, chilled at […] for 2 hours, and centrifuged at 3500 rpm for 15 minutes at 4° C. to precipitate the protein.

The target of the next data set is CYP3A4 (Homo sapiens (Human), UniProt P08684). The description is as above. The data set is classed as in vitro ADME. The following applies: recombinant Bactosomes, 10 minutes. How it is done: as §1, §2, §3, §4
Sequence of CYP3A4 (P08684 whole entry): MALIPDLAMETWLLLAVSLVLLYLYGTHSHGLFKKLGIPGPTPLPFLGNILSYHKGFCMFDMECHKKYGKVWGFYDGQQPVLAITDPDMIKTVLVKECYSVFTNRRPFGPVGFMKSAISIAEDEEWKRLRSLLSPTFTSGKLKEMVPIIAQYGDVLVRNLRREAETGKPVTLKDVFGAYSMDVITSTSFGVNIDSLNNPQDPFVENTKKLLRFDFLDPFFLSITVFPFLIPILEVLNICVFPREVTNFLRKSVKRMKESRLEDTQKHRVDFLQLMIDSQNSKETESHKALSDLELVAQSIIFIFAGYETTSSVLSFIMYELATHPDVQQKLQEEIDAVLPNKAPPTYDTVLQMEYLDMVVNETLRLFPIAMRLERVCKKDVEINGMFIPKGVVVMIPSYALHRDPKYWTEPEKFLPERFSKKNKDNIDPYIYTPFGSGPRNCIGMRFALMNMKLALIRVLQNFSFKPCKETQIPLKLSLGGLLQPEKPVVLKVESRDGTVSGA
The next data set concerns the target CYP2D6 (Homo sapiens (Human), UniProt P10635). The description is as above. The data set is classed as in vitro ADME. The following applies: recombinant Bactosomes, 10 minutes. How it is done:
as §1, §2, §3, §4

The next data set has as its target CYP2C19 (Homo sapiens (Human), UniProt P33261). The data set is described as above. The format is in vitro ADME. To be noted: recombinant Bactosomes, 10 minutes. Here is the method:
as §1, §2, §3, §4

The target of a further data set is CYP2C9 (Homo sapiens (Human), UniProt P11712). Described as above. The following applies: recombinant Bactosomes, 10 minutes. The data set is classed as in vitro ADME. How it is done: as §1, §2, §3, §4
Sequence of CYP2C9 (P11712 whole entry): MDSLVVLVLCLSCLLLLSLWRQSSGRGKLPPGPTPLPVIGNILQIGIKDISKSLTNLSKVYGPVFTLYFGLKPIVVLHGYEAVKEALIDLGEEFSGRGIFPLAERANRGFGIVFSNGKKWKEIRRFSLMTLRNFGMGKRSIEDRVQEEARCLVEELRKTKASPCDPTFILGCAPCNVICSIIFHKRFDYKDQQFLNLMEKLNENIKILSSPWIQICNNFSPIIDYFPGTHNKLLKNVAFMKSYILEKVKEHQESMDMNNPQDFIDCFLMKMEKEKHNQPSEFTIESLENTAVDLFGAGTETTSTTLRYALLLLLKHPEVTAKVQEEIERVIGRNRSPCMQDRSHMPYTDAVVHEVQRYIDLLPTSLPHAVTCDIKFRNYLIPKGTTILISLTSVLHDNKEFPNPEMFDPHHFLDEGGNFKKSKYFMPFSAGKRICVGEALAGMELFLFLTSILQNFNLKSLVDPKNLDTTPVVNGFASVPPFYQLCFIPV
Data set [1] relates to collagen-induced arthritis in DBA/1j mice. Description: Mouse Collagen-Induced Arthritis. The data set is classed as in vivo. To be noted: 10 mg/kg/day, once daily for 14 days, oral gavage; arthritic index vs control. Here is the method: Seven- to eight-week-old male DBA/1j mice were used for all procedures. Animals were housed in groups of 10, and were maintained at 21° C.±2° C. on a 12-hour light/dark cycle with food and water ad libitum. Complete Freund's adjuvant (CFA) was prepared by emulsifying bovine type II collagen at 4 mg/mL with a 4 mg/mL suspension of Mycobacterium tuberculosis H37Ra in Incomplete Freund's Adjuvant (IFA) (0.85 mL paraffin oil and 0.15 mL mannide monooleate) in a 1:1 (v/v) ratio. All mice were immunised subcutaneously with 200 μg of bovine type II collagen in CFA. 21 days later, all mice were immunised subcutaneously with 100 μg of bovine type II collagen in IFA. The mice started to develop signs and symptoms of arthritis following the ‘booster’ immunisation.
For macroscopic assessment of arthritis, the following signs were monitored in each paw of each mouse three times per week and summed to generate the Arthritic Index (A1) (the maximum A1 for one animal is 16): • 0=no visible effects of arthritis. • 1=oedema and/or erythema of 1 digit. • 2=oedema and/or erythema of 2 digits. • 3=oedema and/or erythema of more than 2 digits. • 4=severe arthritis of entire paw and digits.
Animals were sorted into treatment groups with a mean arthritic index of 2.5 and then dosed once daily for 14 days with compound: by oral gavage for test compounds, or by subcutaneous injection at a dose of 10 mg/kg for the positive control, etanercept. After completion of the experiment, the mice were sacrificed.
The data were analysed by generating an average of the arthritic index across each treatment group. The mean arthritic index was then compared to the arthritic index of control (untreated) animals using the following formula to generate a percentage inhibition of disease.

The target in a further data set is hERG (Homo sapiens (Human), UniProt Q12809). Description: hERG Ion Channel binding assay (3H astemizole displacement). The following applies: human, membranes of HEK293 cells stably expressing hERG, pH 7.4, probe 3H astemizole (1.5 nM); Tested at 25 μM; displacement of 3H astemizole, hERG-HEK293 membranes. Summed up:
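Membranes from stably transfected hERG-HEK293 cells incubated with 1.5 nM ³H-astemizole ± test compound in HEPES buffer pH 7.4 (0.1% BSA, 5 mM KCl, 130 mM NaCl) at 25° C for 60 min. Bound ligand measured by filtration and scintillation counting; reported as % displacement (0% none, 100% complete).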
(In general: hERG is a cardiac potassium channel; its block is linked to QT prolongation.)

Molecules are shown by their SMILES.

Sequence of CYP2C19 (P33261 whole entry): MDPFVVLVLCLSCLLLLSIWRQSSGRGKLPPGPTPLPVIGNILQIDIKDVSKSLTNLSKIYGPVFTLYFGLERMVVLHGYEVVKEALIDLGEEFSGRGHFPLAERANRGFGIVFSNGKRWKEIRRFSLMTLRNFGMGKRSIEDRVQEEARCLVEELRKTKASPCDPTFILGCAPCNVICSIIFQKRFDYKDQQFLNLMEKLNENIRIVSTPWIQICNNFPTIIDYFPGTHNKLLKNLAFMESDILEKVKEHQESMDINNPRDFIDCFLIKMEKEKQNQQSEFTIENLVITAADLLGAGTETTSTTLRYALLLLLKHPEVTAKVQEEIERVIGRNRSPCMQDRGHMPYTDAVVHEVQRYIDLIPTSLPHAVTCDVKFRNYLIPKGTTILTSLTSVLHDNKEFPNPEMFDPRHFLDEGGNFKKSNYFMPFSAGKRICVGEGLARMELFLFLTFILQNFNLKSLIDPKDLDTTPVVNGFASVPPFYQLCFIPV
Sequence of hERG (Q12809 whole entry): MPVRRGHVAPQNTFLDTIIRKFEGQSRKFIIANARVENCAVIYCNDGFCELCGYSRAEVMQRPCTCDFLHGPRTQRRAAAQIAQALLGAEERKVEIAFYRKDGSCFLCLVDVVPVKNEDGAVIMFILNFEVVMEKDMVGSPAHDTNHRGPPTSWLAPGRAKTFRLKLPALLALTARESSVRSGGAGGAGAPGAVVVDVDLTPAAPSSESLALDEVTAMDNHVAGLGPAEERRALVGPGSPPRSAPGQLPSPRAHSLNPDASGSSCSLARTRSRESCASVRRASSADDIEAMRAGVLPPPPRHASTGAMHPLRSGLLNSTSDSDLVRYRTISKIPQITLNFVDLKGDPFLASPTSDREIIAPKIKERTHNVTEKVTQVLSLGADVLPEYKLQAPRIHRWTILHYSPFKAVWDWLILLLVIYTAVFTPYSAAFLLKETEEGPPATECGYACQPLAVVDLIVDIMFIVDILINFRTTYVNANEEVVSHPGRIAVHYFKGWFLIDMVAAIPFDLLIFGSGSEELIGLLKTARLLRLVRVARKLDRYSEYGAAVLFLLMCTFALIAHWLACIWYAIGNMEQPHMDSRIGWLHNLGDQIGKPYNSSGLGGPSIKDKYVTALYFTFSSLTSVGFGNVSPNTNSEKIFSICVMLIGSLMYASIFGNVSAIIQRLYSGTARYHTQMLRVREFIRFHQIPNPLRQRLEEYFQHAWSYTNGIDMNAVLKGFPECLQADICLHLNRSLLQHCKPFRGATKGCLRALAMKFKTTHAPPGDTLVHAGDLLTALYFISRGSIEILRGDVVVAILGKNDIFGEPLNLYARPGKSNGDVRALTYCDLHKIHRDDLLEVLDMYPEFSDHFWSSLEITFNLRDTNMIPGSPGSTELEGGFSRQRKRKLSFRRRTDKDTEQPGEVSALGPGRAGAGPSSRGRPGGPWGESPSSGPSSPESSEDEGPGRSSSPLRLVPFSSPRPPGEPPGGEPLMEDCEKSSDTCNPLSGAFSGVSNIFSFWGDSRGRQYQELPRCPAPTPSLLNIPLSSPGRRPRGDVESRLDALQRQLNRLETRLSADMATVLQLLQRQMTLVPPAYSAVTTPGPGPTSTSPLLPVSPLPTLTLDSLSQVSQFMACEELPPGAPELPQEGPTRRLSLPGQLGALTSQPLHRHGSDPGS
Sequence of CYP1A2 (P05177 whole entry, canonical isoform): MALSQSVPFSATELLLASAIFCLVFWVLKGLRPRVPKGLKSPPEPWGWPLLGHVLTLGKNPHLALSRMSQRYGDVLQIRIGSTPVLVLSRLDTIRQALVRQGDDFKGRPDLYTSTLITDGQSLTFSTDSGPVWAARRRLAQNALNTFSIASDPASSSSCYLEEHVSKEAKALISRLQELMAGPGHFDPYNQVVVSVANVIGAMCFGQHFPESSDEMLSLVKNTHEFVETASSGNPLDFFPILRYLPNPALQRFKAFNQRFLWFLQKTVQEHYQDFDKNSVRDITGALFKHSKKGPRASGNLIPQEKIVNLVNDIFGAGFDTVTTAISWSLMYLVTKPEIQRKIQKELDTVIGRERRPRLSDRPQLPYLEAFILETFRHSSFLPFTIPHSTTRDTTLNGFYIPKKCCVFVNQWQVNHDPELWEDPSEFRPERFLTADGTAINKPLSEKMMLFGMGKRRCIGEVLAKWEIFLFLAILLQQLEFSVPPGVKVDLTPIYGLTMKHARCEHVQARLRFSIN
Sequence of CYP2D6 (P10635 whole entry): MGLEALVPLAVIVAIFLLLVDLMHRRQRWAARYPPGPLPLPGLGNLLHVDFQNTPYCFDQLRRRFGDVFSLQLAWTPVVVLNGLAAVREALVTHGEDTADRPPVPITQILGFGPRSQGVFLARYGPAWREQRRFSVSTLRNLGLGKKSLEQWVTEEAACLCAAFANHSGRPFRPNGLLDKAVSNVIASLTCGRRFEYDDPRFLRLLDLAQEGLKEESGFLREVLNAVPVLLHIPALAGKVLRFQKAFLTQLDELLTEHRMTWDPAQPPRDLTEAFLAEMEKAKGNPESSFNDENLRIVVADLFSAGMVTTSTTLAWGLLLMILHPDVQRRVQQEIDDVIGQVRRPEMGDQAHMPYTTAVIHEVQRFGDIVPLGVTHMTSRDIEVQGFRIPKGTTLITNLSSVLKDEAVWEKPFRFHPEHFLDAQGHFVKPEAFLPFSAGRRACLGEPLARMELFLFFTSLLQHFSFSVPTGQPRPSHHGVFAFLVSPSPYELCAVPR

Turning to `C[C@]1(O)CC[C@H](NS(=O)(=O)c2ccc(-c3ccc(Cl)cc3C#N)cc2)CC1` [HMC-C-01-A, reference compound], the IC50 was 25 µM at CYP1A2; > 25 µM on CYP3A4; 16.6 µM at CYP2D6; > 25 µM at CYP2C19; 21 µM at CYP2C9. The “% inhibition of disease” value in data set [1] was determined as 40%. The compound also yielded an inhibition at 60 min, 25 µM on hERG of 18%.
